Measurements: US7387779B2, “Anti-angiogenic proteins and fragments and methods of use thereof” (Beth Israel Deaconess Medical Center, priority 1998, dated 2008)

Assays:
[1] = test system: C-PAE cells; test: Annexin V-FITC apoptosis assay; assay type: cell-based, bovine; conditions: 5 μg/ml Arresten, 40 ng/ml TNFα
Protocol: Fifty thousand C-PAE cells were added to each well of a 6-well tissue culture plate in DMEM supplemented with 10% FBS for 12 hours. Fresh medium together and either 5 μg/ml Arresten or 40 ng/ml TNFα (positive control) was added at 2, 4 and 6 hour time points. Control wells received an equal of volume of PBS. Detached cells and adherent cells were pooled together and centrifuged at 1500 rpm. Cells were washed with binding buffer (Clontech, Palo Alto, Calif., USA), and phosphatidyl-serine (PS) externalization, an indicator of apoptosis, was measured by labeling with FITC-labeled annexin V (Clontech) according to manufacturer's instructions. Annexin-FITC labeled cells were counted using a FACStar Plus flow cytometer (Becton-Dickinson, Waltham, Mass., USA). For each treatment, 10,000 cells were counted and stored. […] Relative to controls, the percentage of annexin-V-stained (apoptotic) cells increased to about 27% at 2 hours, and near 20% at 4 and 6 hours for the positive control, TNFα. For Arresten-treated cells, the percentage of apoptotic cells was about 18% at 2 hours, and about 23% at 4 and 6 hours.
Annexin V-FITC Labeling. In order to establish apoptosis as the potential mode of action for Canstatin, Annexin V-FITC was used to label externalized phosphatidylserine (PS), to assess apoptotic cells. 0.5×10^6 C-PAE cells, PC-3, 786-O and HEK 293 cells were added to each well of a 6 well tissue culture plate in 10% FBS supplemented DMEM (BioWhittaker, Walkersville, Md., USA) overnight. The next day, fresh medium was added to all wells together with 40 ng/ml TNF-α (positive control) or 15 μg/ml Canstatin. Control cells received an equal volume of PBS. After 24 hours of treatment, medium containing detached cells was collected and attached cells were trypsinized and combined with detached cells and centrifuged at 3,000×g. Cells were then washed and phosphatidyl-serine externalization (an early apoptotic indicator) was measured by labeling with FITC-labeled annexin V (Clontech, Palo Alto, Calif., USA) according to the manufacturer's instructions. Annexin V-FITC-labeled cells were counted using a FAC Star Plus flow cytometer (Becton-Dickenson, Waltham, Mass., USA). For each treatment 15,000 cells were counted and stored in listmode.
C-PAE cells (0.5×10^6 per well) were seeded onto a 6-well plate in 10% FCS supplemented DMEM. The next day, fresh medium containing 10% FCS was added with either 80 ng/ml of TNF-α (positive control) or Tumstatin ranging from 0.02 to 20 μg/ml. Control cells received an equal volume of PBS. After 18 hours of treatment, medium containing floating cells was collected, and attached cells were trypsinized and centrifuged together with floating cells at 3,000×g. The cells were then washed in PBS and resuspended in binding buffer (10 mM HEPES/NaOH, pH 7.4, 140 mM NaCl, 2.5 mM CaCl2). Annexin V-FITC (Clontech, Palo Alto, Calif., USA) was added to a final concentration of 150 ng/ml, and the cells were incubated in the darkness for 10 minutes. The cells were washed again in PBS and resuspended in binding buffer. Annexin V-FITC labeled cells were counted using a FACStar Plus flow cytometer (Becton-Dickinson, Waltham, Mass., USA). For each treatment, 15,000 cells were counted and stored in listmode.
Apoptosis was measured by Annexin V-FITC assay, using the ApoAlert kit (Clontech, Palo Alto, Calif., USA). Propidium iodide was used to stain the nuclei of cells that had died by ways other than apoptosis.
The assay was performed as described above, by treating C-PAE cells with Tumstatin-44-131 for 18 hours. Control cells received PBS.

[2] = test system: Caspase-3 in C-PAE cells; test: Caspase-3 assay; assay type: cell-based, bovine; conditions: TNF-α 80 ng/ml
Protocol: Tumstatin also altered cell morphology of C-PAE cells as monitored by phase contrast microscopy. After treating cells with 20 μg/ml of Tumstatin in the presence of 10% FCS for 24 hours on fibronectin-coated plates, the typical morphological features of apoptotic cells, membrane blebbing, cytoplasmic shrinkage, and chromatin condensation could be observed. […] Caspase-3 assay: Caspase-3 (CPP32) is an intracellular protease activated at the early stage of apoptosis, and initiates cellular breakdown by degrading structural and DNA repair proteins (Casciola-Rosen, L. et al., 1996, J. Exp. Med. 183:1957-64; Salvesen, G. S. et al., 1997, Cell 91:443-46). The protease activity of Caspase-3 was measured spectrophotometrically by detection of the chromophore (p-nitroanilide) cleaved from the labeled substrate (DEVD-pNA). C-PAE cells or PC-3 cells (0.5×10^6 per well) were plated onto a 6-well plate precoated with fibronectin (10 μg/ml) in DMEM supplemented with 10% FCS, and incubated overnight. The next day, the medium was replaced with DMEM containing 2% FCS and then incubated overnight at 37° C. Then cells were then stimulated with bFGF (3 ng/ml) in DMEM supplemented with 2% FCS, and also containing either TNF-α (80 ng/ml, positive control) or Tumstatin (10 μg/ml), and incubated for 24 hours. Controls received PBS buffer. After 24 hours, the supernatant cells were collected, and attached cells were trypsinized and combined with the supernatant cells. Cells were counted and resuspended in cell lysis buffer (Clontech) at a concentration of 4×10^7 cells/ml. The rest of the protocol followed the manufacturer's instructions (Clontech). A specific inhibitor of Caspase-3, DEVD-fmk (Asp-Glu-Val-Asp-fluoromethyl ketone) was used to confirm the specificity of the assay. The absorbance was measured in a microplate reader (Bio-Rad, Hercules, Calif., USA) at 405 nm. The assay was repeated three times for each cell type.
Apoptosis was also evaluated by measuring Caspase-3 activity as described in Example 27, above. The results are shown in FIG. 35, which is a histogram showing Caspase-3 activity as a measure of absorbance at OD405 (y-axis) of C-PAE cells treated (x-axis) with 5 μg/ml Tum-1, Tum-2, Tum-3 or Tum-4, or 80 ng/ml TNF-α or PBS buffer (control).
Caspase-3 activity was also assayed as described above. DEVD-fmk, a specific caspase-3 inhibitor, was used as an internal control to show specificity of Tumstatin-44-131. TNF-α (80 ng/ml) was used as a positive control. The experiments were repeated three times.
The protease activity of Caspase-3 in cells treated with T3 peptide was measured spectrophotometrically by detection of the chromophore (p-nitroanilide) cleaved from the labeled substrate (DEVD-pNA). […] In PC-3 nonendothelial cells, there was no difference in Caspase-3 activity between control treatments and T3 peptide-treated cells.

[3] = test system: Caspase-3 in C-PAE cells; test: Caspase-3 assay; assay type: cell-based, bovine; conditions: 20 μg/ml Tumstatin; TNF-α positive control
[4] = test system: PC-3 cells; test: MTT cell viability assay; assay type: cell-based, human; conditions: 0-50 μg/ml
Protocol: (§1) Cell viability was measured by MTT assay, as described above.
(§2) The effects of Tumstatin-44-131 and Tum-5-125-C-A on cell viability of C-PAE cells were not seen in control PC-3 and DU-145 cells, as shown in FIGS. 52C and 52D. […] The activity of Tumstatin-44-131 is therefore specific to endothelial cells.

[5] = test system: DU-145 cells; test: MTT cell viability assay; assay type: cell-based; conditions: 0-50 μg/ml
Protocol: as §1, §2

[6] = test system: Goodpasture autoantibody; test: Reactivity with Goodpasture autoantibody (western blotting); assay type: binding, human
Source text: Goodpasture syndrome is an autoimmune disease characterized by pulmonary hemorrhage and/or rapidly progressing glomerulonephritis, which are caused by the disruption of glomerular and alveolar basement membranes through immune injury associated with autoantibody activity against α3(IV) NC1. Recently, the most probable disease-related pathogenic epitope was identified in the N-terminal portion (Kalluri, R. et al., 1996, J. Biol. Chem. 271:9062-8; Hellmark, T. et al., 1999, Kidney Int. 55:938-44), and was then further confined within the N-terminal 40 amino acids (Hellmark, T. et al., 1999, J. Biol. Chem. 274:25862-8; Netzer, K. O. et al., 1999, J. Biol. Chem. 274:11267-74). The N-terminal Tumstatin-44-131 consists of residues 44-131 of Tumstatin, which is outside of the Goodpasture autoepitope. To further confirm that Tumstatin-44-131 would not be detected by Goodpasture autoantibody, antisera from patients with Goodpasture was used for western blotting.

[7] = test system: C-PAE cells; test: Cell cycle analysis (propidium iodide, flow cytometry); assay type: cell-based, bovine
Protocol: To further evaluate the mechanism of T3 peptide on endothelial cell proliferation, the effect of T3 peptide on cell cycle progression was analyzed. In the growth arrested and contact inhibited cells (0 hour), 4.1% of cells were in S phase. […] This was true even at a maximal dosage of 100 μg/ml. The effect of the T3 peptide was dose-dependent, however, with the percentage of cells in S phase at 21.4% at 10 μg/ml, and 20.5% at 25 μg/ml. The percentage of cells in G0/G1 phase was 88.3% at 0 hour, 53.4% for the bFGF control, and 57.6%, 57.6% and 71.0% for treatments with T1, T6 and T3 peptide, respectively. […] Apoptotic Activity: Peptides T2, T3, T4, T5 and T6 (10 μg/ml concentration) were tested for their effect of viability of C-PAE cells using the MTT assay, as described in Examples 32 and 36 above. The results are shown in FIG. 43D, which is a histogram showing cell viability as measured at OD595 (y-axis), and treatments with the synthetic peptides (x-axis). […] TNF-α (100 ng/ml) was used to serve as a positive control in inducing endothelial cell apoptosis.
The effect of Tumstatin-44-131 and Tum-5-125-C-A on the cell cycle were assayed similarly to Example 4 above. Briefly, C-PAE cells were growth arrested by contact inhibition for 48 hours. The cells, at 10^5 cells per well, were then harvested and plated into a 12-well plate coated with fibronectin in 5% FCS and either recombinant Tumstatin-44-131 or Tum-5-125-C-A. After 21 hours, the cells were harvested and fixed in 70% ice-cold ethanol. The fixed cells were rehydrated a room temperature for 30 minutes in PBS containing 2% FCS and 0.1% Tween-20, centrifuged and resuspended in 0.5 ml of the same buffer. RNase (5 μg/ml) digestion was done at 37° C. for one hour, followed by staining with propidium iodide (5 μg/ml). The cells were then counted using an EPICS XL-MCL flow cytometer (Beckman-Coulter Instruments, Fullerton, Calif., USA).

[8] = test system: PC-3 tumors; test: PC-3 xenograft in athymic nude NCRNU mice (Example 46); assay type: in vivo; conditions: 1 mg/kg i.p. b.i.d., 20 days
Protocol: Tumstatin-44-131 was also tested for its ability to suppress tumor growth. Male athymic nude NCRNU mice, of 5-6 weeks of age and about 25 g, were implanted with […] approximately 2×10^6 PC-3 (prostate cancer carcinoma) cells into the dorsal subcutis. […] The tumors were allowed to grow to about 50 mm^3, and animals were then pair-matched into groups of 6 mice. Initial doses of protein or vehicle (PBS, control) were given on the day of pair-matching (Day 1). Tumstatin-44-131, Tum-5-125-C-A, or human endostatin in sterile PBS was intraperitoneally injected daily b.i.d. at doses ranging from 1 to 20 mg/kg for 20 days. Control animals received injection of PBS vehicle. In one treatment, continuous subcutaneous delivery of Tumstatin-44-131 was done using surgically implanted Alzet mini-pumps. The mice were weighed twice weekly, and tumor measurements were taken, starting on Day 1. Estimated mean tumor volumes were calculated, and at Day 21, the mice were weighed, sacrificed, and their tumors excised and examined by light microscopy and CD31 immunostaining. The mean treated tumor weight was divided by the mean control tumor weight was subtracted from one, and expressed as a percentage to give the tumor growth inhibition for each group.

Molecule	percentage of annexin-V-stained (apoptotic) cells ([1]; 4 and 6 hours) [%]	percentage of annexin-V-stained (apoptotic) cells ([1]; 2 hours)	fold increase in Caspase-3 activity ([2]; 10 μg/ml E. Coli-expressed Tumstatin-44-131) [fold]	fold increase in Caspase-3 activity ([2]; 50 μg/ml T3 peptide) [fold]	fold increase in Caspase-3 activity [3] [fold]	effect on viability of PC-3 cells [4]	effect on viability of DU-145 cells [5]	detection by antisera / autoantibodies from patients with Goodpasture syndrome [6]	cell cycle arrest compared with Tumstatin-44-131 [7]	tumor growth inhibition [8] [%]
TNF-α [reference compound]	~20	about 27%	4.5	4.5	1.7					
Tum-5-125-C-A: Tumstatin-44-131 with cysteine at position 125 mutated to alanine (SEQ ID NO:34) (protein, Tumstatin-5-125-C-A (amino acids 45-132 of SEQ ID NO10; alanine has been substituted for the cysteine residue at position 125 of the full-length Tumstatin molecule)) FSFLFVQGNQRAHGQDLGTLGSCLQRFTTMPFLFCNVNDVCNFASRNDYSYWLSTPALMPMNMAPITGRALEPYISRCTVAEGPAIAI						not seen	not seen	failed to detect	equivalent to treatment with Tumstatin-44-131	92.0
